Publication PMC7554340, “A Novel Dual-Targeted α-Helical Peptide With Potent Antifungal Activity Against Fluconazole-Resistant Candida albicans Clinical Isolates” (Frontiers in Microbiology, 2020)
No end group written: not given here.

Assays:
[1] = system: C. albicans sp3876; settings: sp3876, 48 h; for MIC: pH 7
[2] = system: C. parapsilosis cgmcc 2.3989; assay: Antifungal activity assay (broth microdilution, MIC/MFC); format: cell-based, Candida parapsilosis; settings: for MFC: 50 μl of MIC wells plated on YPD agar, 28°C, 48 h, lowest concentration that completely killed fungal cells, consensus of at least three independent experiments; for MIC: cgmcc 2.3989, 48 h, pH 7
[3] = system: C. albicans 17546; settings: 17546, 48 h; for MIC: pH 7
[4] = system: C. tropicalis cgmcc 2.1975; assay: Antifungal activity assay (broth microdilution, MIC/MFC); format: cell-based, Candida tropicalis; settings: for MFC: 50 μl of MIC wells plated on YPD agar, 28°C, 48 h, lowest concentration that completely killed fungal cells, consensus of at least three independent experiments; for MIC: cgmcc 2.1975, 48 h, pH 7
[5] = system: C. albicans 56214; settings: 56214, 48 h; for MIC: pH 7
[6] = system: C. albicans sp3903; settings: sp3903, 48 h; for MIC: pH 7
[7] = system: C. albicans 56452; settings: 56452, 48 h; for MIC: pH 7
[8] = system: C. albicans 58288; settings: 58288, 48 h; for MIC: pH 7
[9] = system: C. albicans sp3931; settings: sp3931, 48 h; for MIC: pH 7
[10] = system: C. albicans cgmcc 2.2086; assay: Antifungal activity assay (broth microdilution, MIC/MFC); format: cell-based, Candida albicans; settings: for MFC: 50 μl of MIC wells plated on YPD agar, 28°C, 48 h, lowest concentration that completely killed fungal cells, consensus of at least three independent experiments; for MIC: cgmcc 2.2086, 48 h, pH 7
[11] = system: C. albicans sp3902; settings: sp3902, 48 h; for MIC: pH 7
[12] = system: C. albicans 14936; settings: 14936, 48 h; for MIC: pH 7
[13] = system: PMEC cells; settings: PMEC cells, MTT, 24 h treatment, 1-64 μM; probit regression
[14] = system: IPEC-J2 and PMEC cells; assay: Cytotoxicity MTT assay, statements for both cell lines; settings: 24 h
[15] = system: human erythrocytes; settings: for HC10: red cells of human, 1 h
[16] = system: IPEC-J2 cells; settings: IPEC-J2 cells, MTT, 24 h treatment, 1-64 μM; probit regression

## KIGKVLLVKGIK-NH2 [KV2]
[1]
  MFC: >64 µM
  MIC: >64 µM
[2]
  MFC: >64 µM
  MIC: >64 µM
[3]
  MFC: >64 µM
  MIC: >64 µM
[4]
  MFC: >64 µM
  MIC: >64 µM
[5]
  MFC: >64 µM
  MIC: >64 µM
[6]
  MFC: >64 µM
  MIC: >64 µM
[7]
  MFC: >64 µM
  MIC: >64 µM
[8]
  MFC: >64 µM
  MIC: >64 µM
[9]
  MFC: >64 µM
  MIC: >64 µM
[10]
  MFC: >64 µM
  MIC: >64 µM
[11]
  MFC: >64 µM
  MIC: >64 µM
[12]
  MFC: >64 µM
  MIC: >64 µM

## KIGKWLLWKGIKKIGKWL-NH2 [KW3]
[1]
  MFC: 8 µM
  MIC: 8 µM
[2]
  MFC: 8 µM
  MIC: 8 µM
[3]
  MFC: 8 µM
  MIC: 8 µM
[13]
  IC50: 10.3 µM
[4]
  MFC: 2 µM
  MIC: 2 µM
[5]
  MFC: 8 µM
  MIC: 4 µM
[6]
  MFC: 8 µM
  MIC: 4 µM
[14]
  concentration at which statistically significant cytotoxic effects started: 4 µM
[7]
  MFC: 4 µM
  MIC: 4 µM
[15]
  hemolytic activity (in words): strong hemolytic activities
  HC10: 2.69 µM
[8]
  MFC: 8 µM
  MIC: 8 µM
[9]
  MFC: 8 µM
  MIC: 8 µM
[10]
  MFC: 8 µM
  MIC: 4 µM
[11]
  MFC: 2 µM
  MIC: 2 µM
[16]
  IC50: 6.84 µM
[12]
  MFC: 8 µM
  MIC: 8 µM

## RIGRWLLWRGIRRIGRWL-NH2 [RW3]
[1]
  MFC: 4 µM
  MIC: 4 µM
[2]
  MFC: 4 µM
  MIC: 4 µM
[3]
  MFC: 8 µM
  MIC: 8 µM
[13]
  IC50: 22.3 µM
[4]
  MFC: 2 µM
  MIC: 2 µM
[5]
  MFC: 2 µM
  MIC: 2 µM
[6]
  MFC: 8 µM
  MIC: 2 µM
[14]
  concentration at which statistically significant cytotoxic effects started: 8 µM
[7]
  MFC: 4 µM
  MIC: 4 µM
[15]
  hemolytic activity (in words): strong hemolytic activities
  HC10: 3.81 µM
[8]
  MFC: 8 µM
  MIC: 4 µM
[9]
  MFC: 4 µM
  MIC: 4 µM
[10]
  MFC: 4 µM
  MIC: 4 µM
[11]
  MFC: 2 µM
  MIC: 2 µM
[16]
  IC50: 14.8 µM
[12]
  MFC: 4 µM
  MIC: 4 µM

## KIGKVL-NH2 [KV]
[1]
  MFC: >64 µM
  MIC: >64 µM
[2]
  MFC: >64 µM
  MIC: >64 µM
[3]
  MFC: >64 µM
  MIC: >64 µM
[4]
  MFC: >64 µM
  MIC: >64 µM
[5]
  MFC: >64 µM
  MIC: >64 µM
[6]
  MFC: >64 µM
  MIC: >64 µM
[7]
  MFC: >64 µM
  MIC: >64 µM
[8]
  MFC: >64 µM
  MIC: >64 µM
[9]
  MFC: >64 µM
  MIC: >64 µM
[10]
  MFC: >64 µM
  MIC: >64 µM
[11]
  MFC: >64 µM
  MIC: >64 µM
[12]
  MFC: >64 µM
  MIC: >64 µM
